Read-outs that look alike come from different tables or passages of the source.
Key:
[1] = biological target: T1, human FLT3 protein (FLT3 (WT)) (Homo sapiens, UniProt P36888); assay: FLT3 inhibition test (FLT3 enzyme inhibition, time-resolved fluorescence of substrate peptide phosphorylation); type: biochemical
T1 construct: human FLT3 protein (intracellular region, 564 to 993 aa); GST; purchased Carna Biosciences; host or cells: baculovirus expression system
T1 sequence (P36888 564-993): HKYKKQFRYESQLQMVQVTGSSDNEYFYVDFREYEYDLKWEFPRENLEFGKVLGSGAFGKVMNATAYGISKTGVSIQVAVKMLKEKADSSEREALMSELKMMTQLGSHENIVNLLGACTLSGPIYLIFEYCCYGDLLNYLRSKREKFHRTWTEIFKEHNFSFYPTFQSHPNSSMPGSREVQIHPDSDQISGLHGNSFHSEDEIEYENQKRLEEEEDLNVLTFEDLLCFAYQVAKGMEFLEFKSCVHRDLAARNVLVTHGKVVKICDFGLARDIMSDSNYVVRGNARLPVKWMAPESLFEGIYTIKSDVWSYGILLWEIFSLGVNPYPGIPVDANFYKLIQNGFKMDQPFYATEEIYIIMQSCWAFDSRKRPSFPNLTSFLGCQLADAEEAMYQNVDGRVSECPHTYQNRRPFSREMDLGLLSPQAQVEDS
Outline: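 Substrate peptide phosphorylation detected by time-resolved fluorescence after a 30 min kinase reaction at 25° C with 50 μM ATP (final). Beforehand, compound and FLT3 (WT, 1.2 μg) stood 15 min at 25° C in HEPES buffer pH 7.5 containing MgCl2, NaCl, BSA and DTT.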

MV4-11 cells = assay: Leukemia cell proliferation inhibition test (ATPlite), MV4-11; type: cell-based; conditions: Homo sapiens, read-out: MV4-11 cell proliferation inhibition effect
Outline: (§1)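 Molm-13 or MV4-11 cells at 10,000 cells/well in RPMI with 10% FBS and pen/strep were exposed to serially diluted compound for 72 h at 37 °C, 5% CO2. Total cellular ATP was read by luciferase luminescence. GI50 was taken relative to 0.1% DMSO control, from duplicates by sigmoid non-linear regression.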

Molm-13 cells = assay: Leukemia cell proliferation inhibition test (ATPlite), Molm-13; type: cell-based; conditions: Homo sapiens, read-out: MOLM13 cell proliferation inhibition effect
Outline: as §1

[2] = GST-fused human FLT3 (564 to 993 aa), ATP 50 μM, read-out: FLT3 (WT) enzyme inhibition activity
[3] = MV4-11, 72 h, MV4-11, 72 hours culture, ATPlite, GI50 per method
[4] = MOLM-13, 72 h, Molm-13, 72 hours culture, ATPlite, GI50 per method
[5] = FLT3 (WT), read-out: FLT3 (WT) enzyme inhibition activity

Row | Compound | IC50 [1, 2] [nM] | IC50 (MV4-11 cells; [3]) [nM] | IC50 (Molm-13 cells; [4]) [nM] | further results
1 | C=CC(=O)NCC(=O)Nc1cccc(NC(=O)c2cnc(NCCc3ccncc3)nc2NCCC)c1 [Compound 2-1, N-(3-(2-(acrylylamido)acetamido)phenyl)-4-(propylamino)-2-((2-(pyridin-4-yl)ethyl)amino)pyrimidine-5-carboxamide] | < 10 |  |  | IC50 (MV4-11 cells; MV4-11, 72 hours culture, ATPlite, GI50 per method): 10 to 100 nM; IC50 (Molm-13 cells; Molm-13, 72 hours culture, ATPlite, GI50 per method): 10 to 100 nM
2 | CCCNc1nc(Nc2ccc(C(N)=O)cc2)ncc1C(=O)Nc1cccc(NC(=O)[C@H](C)N(C)C(=O)/C=C/CNCCF)c1 [Compound 4-10] |  | < 10 | < 10 | IC50 ([1]; FLT3 (WT) enzyme inhibition activity, GST-fused human FLT3 (564 to 993 aa), ATP 50 μM): < 10 nM
3 | CCCNc1nc(Nc2cccc(F)c2)ncc1CNc1cccc(NC(=O)[C@H](C)N(C)C(=O)/C=C/CN(C)C)c1 [Compound 6-21] | 10 to 100 | 100 to 1000 | 100 to 1000 | 
4 | CCCNc1nc(Nc2cccc(-n3ccnn3)c2)ncc1C#CCCCNC(=O)[C@H](C)N(C)C(=O)/C=C/CN(C)C [Compound 22-20] |  |  |  | IC50 [1, 5]: < 10 nM; IC50 (MV4-11 cells; MV4-11, MV4-11 cell): < 10 nM; IC50 (Molm-13 cells; MOLM-13, MOLM13 cell): < 10 nM
5 | CNc1nc(Nc2cccc(F)c2)ncc1C#Cc1cccc(NC(=O)CN(C)C(=O)/C=C/CN(C)C)c1 [Compound 8-23] | < 10 | 10 to 100 | 10 to 100 | 
6 | CCCNc1nc(Nc2cnc3ccc(OC)cc3c2)ncc1C#CCCCNC(=O)[C@H](C)N(C)C(=O)/C=C/CN(C)C [Compound 21-16] | < 10 | < 10 | < 10 | 
7 | CCCNc1nc(Nc2ccc3c(cnn3C)c2)ncc1C#CCCCNC(=O)[C@@H]1CCCN1C(=O)/C=C/CN(C)C [Compound 22-31, (S,E)-1-(4-(Dimethylamino)-2-butenoyl)-N-(5-(2-((1-methyl-1H-indazol-5-yl)amino)-4-(propylamino)pyrimidin-5-yl)-4-pentyn-1-yl)pyrrolidine-2-carboxamide] |  |  |  | IC50 [1, 5]: < 10 nM; IC50 (MV4-11 cells; MV4-11, MV4-11 cell): < 10 nM; IC50 (Molm-13 cells; MOLM-13, MOLM13 cell): < 10 nM
8 | COc1ccc(Nc2nc(NC3CC3)ncc2C#CCCCNC(=O)[C@H](C)N(C)C(=O)/C=C/CN(C)C)cn1 [Compound 22-24] |  |  |  | IC50 [1, 5]: 10 to 100 nM; IC50 (MV4-11 cells; MV4-11, MV4-11 cell): 10 to 100 nM; IC50 (Molm-13 cells; MOLM-13, MOLM13 cell): 10 to 100 nM
9 | CCCNc1nc(Nc2ccc(C#N)cc2)ncc1/C=C\CNC(=O)CCNC(=O)/C=C/CN(C)C [Compound 7-95] | 10 to 100 | > 1000 | > 1000 | 
10 | CCCNc1nc(Nc2ccc(C#N)cc2)ncc1C#CCCCNC(=O)[C@@H]1C[C@@H](O)CN1C(=O)/C=C/CN(C)C [Compound 7-68] | < 10 | < 10 | < 10 | 

Continued, in another order:

Row | IC50 [1, 2] [nM] | IC50 (MV4-11 cells; [3]) [nM] | IC50 (Molm-13 cells; [4]) [nM] | Compound | further results
11 | < 10 | < 10 | < 10 | CCCNc1nc(Nc2ccc(C#N)cc2)ncc1C#CCCCNC(=O)[C@H](COC)NC(=O)/C=C/CN(C)C [Compound 7-44] | 
12 | < 10 | < 10 | < 10 | COCCCNc1nc(Nc2ccc3[nH]ncc3c2)ncc1C#CCCCNC(=O)[C@H](C)N(C)C(=O)/C=C/CN(C)C [Compound 10-62] | 
13 | < 10 | < 10 | < 10 | C[C@@H](C(=O)NCCCC#Cc1cnc(Nc2ccc(F)nc2)nc1NCCCF)N(C)C(=O)/C=C/CN(C)C [Compound 10-34] | 
14 | 10 to 100 | 100 to 1000 | 10 to 100 | C=CC(=O)N1CCC(NC(=O)c2cnc(NCCc3ccncc3)nc2NCCC)C1 (stereo not drawn) [Compound 6-16] | 
15 | < 10 | < 10 | < 10 | CNc1ncc(C#C[C@H]2C[C@@H](NC(=O)[C@H](C)N(C)C(=O)/C=C/CN(C)C)C2)c(Nc2ccc(OC)nc2)n1 [Compound 13-22] | 
16 | < 10 | < 10 | < 10 | C[C@@H](C(=O)NCCCC#Cc1cnc(Nc2ccnc(F)c2)nc1NCCCF)N(C)C(=O)/C=C/CN(C)C [Compound 9-17] | 
